Several values for one entry are separate records, joined by “and”; a condition that tells them apart may be missing. Equal entries are not always repeated. Where two headings read alike, the source gives them in different places.
Tested on: Pseudomonas aeruginosa ATCC 27853 (GN_042)
Experiment: Synergy of cannabidiol with cell-wall disrupting agent (CBD MIC in combination, FICI)
Type: cell-based
Details: for FICI: calculated using MIC of 256 μg/mL for cannabidiol; for MIC: Pseudomonas aeruginosa
Protocol: The compounds were stored short term at 4° C.
Analysis was performed using Microsoft Excel.

C=C(C)C1CCC(C)=CC1c1c(O)cc(CCCCC)cc1O (stereo not drawn) [Cannabidiol, 2-[3-methyl-6-(1-methylethenyl)-2-cyclohexen-1-yl]-5-pentyl-1,3-benzenediol]
2 µg/mL and 4 µg/mL: CBD MIC with Polymyxin B at concentration 0.5 μg/mL (Example 6, GN_042, listed as CBD)
> 256 µg/mL: MIC (ATCC27853, Spero SPR206 at 0.25 μg/mL, 1st of 3 experiments, read-out: CBD MIC with Spero SPR206) | MIC (ATCC27853, Spero SPR206 at 0.25 μg/mL, 3rd of 3 experiments, read-out: CBD MIC with Spero SPR206) | MIC (ATCC27853, Spero SPR206 at 0.5 μg/mL, 1st of 3 experiments, read-out: CBD MIC with Spero SPR206) | MIC (ATCC27853, Spero SPR206 at 0.5 μg/mL, 3rd of 3 experiments, read-out: CBD MIC with Spero SPR206) | MIC (ATCC27853, Spero SPR206 at 1 μg/mL, 3rd of 3 experiments, read-out: CBD MIC with Spero SPR206) | MIC (ATCC27853, Spero SPR206 at 2 μg/mL, 3rd of 3 experiments, read-out: CBD MIC with Spero SPR206) | MIC (ATCC27853, Spero SPR206 at 4 μg/mL, 3rd of 3 experiments, read-out: CBD MIC with Spero SPR206)
1.016: FICI (Pseudomonas aeruginosa ATCC 27853, cannabidiol with MCC_8980 at 1 μg/mL) | FICI (Pseudomonas aeruginosa ATCC 27853, cannabidiol with SPR741 at 1 μg/mL)
0.2539 and 0.2578: FICI (Pseudomonas aeruginosa ATCC 27853, cannabidiol with MCC_8980 at 16 μg/mL)
0.001 µg/mL: CBD MIC with Ceftazidime (Ceftazidime at 0.25 μg/mL as headed in Table 64, Pseudomonas aeruginosa ATCC 27853) | CBD MIC with Ceftazidime (Ceftazidime at 0.5 μg/mL as headed in Table 64, Pseudomonas aeruginosa ATCC 27853) | CBD MIC with Ceftazidime (Ceftazidime at 2 μg/mL (Table 66), Pseudomonas aeruginosa ATCC 27853) | CBD MIC with Ceftazidime (Ceftazidime at 4 μg/mL (Table 66), Pseudomonas aeruginosa ATCC 27853) | CBD MIC with Colistin (Colistin at 1 μg/mL, Pseudomonas aeruginosa ATCC 27853) | MIC (ATCC27853, MCC_6442 at 4 μg/mL, Pseudomonas aeruginosa ATCC 27853, read-out: CBD MIC with MCC_6442) | MIC (ATCC27853, Octapeptin C4 at 4 μg/mL, read-out: CBD MIC with Octapeptin C4) | MIC (ATCC27853, Pseudomonas aeruginosa ATCC 27853, FADDI-287 at 1 μg/mL, read-out: CBD MIC with FADDI-287) | MIC (ATCC27853, Pseudomonas aeruginosa ATCC 27853, FADDI-287 at 2 μg/mL, read-out: CBD MIC with FADDI-287) | MIC (ATCC27853, Pseudomonas aeruginosa ATCC 27853, FADDI-287 at 4 μg/mL, read-out: CBD MIC with FADDI-287) | MIC (ATCC27853, Spero SPR206 at 1 μg/mL, 1st of 3 experiments, read-out: CBD MIC with Spero SPR206) | MIC (ATCC27853, Spero SPR206 at 2 μg/mL, 1st of 3 experiments, read-out: CBD MIC with Spero SPR206) | MIC (ATCC27853, Spero SPR206 at 4 μg/mL, 1st of 3 experiments, read-out: CBD MIC with Spero SPR206) | CBD MIC with Ticarcillin (Ticarcillin at 16 μg/mL, Pseudomonas aeruginosa ATCC 27853) | CBD MIC with Ticarcillin (Ticarcillin at 32 μg/mL, Pseudomonas aeruginosa ATCC 27853) | CBD MIC with Ticarcillin (Ticarcillin at 64 μg/mL, Pseudomonas aeruginosa ATCC 27853)
>32 µg/mL: CBD MIC with Cefotetan (Cefotetan at 4 μg/mL) | CBD MIC with Cefotetan (Cefotetan at 8 μg/mL) | CBD MIC with Cefotetan (Cefotetan at 16 μg/mL) | CBD MIC with Cefotetan (Cefotetan at 32 μg/mL) | CBD MIC with Cefotetan (Cefotetan at 64 μg/mL) | CBD MIC with Cefotetan (Cefotetan at 128 μg/mL) | CBD MIC with Ceftazidime (Ceftazidime at 0.25 μg/mL (Table 66), Pseudomonas aeruginosa ATCC 27853) | CBD MIC with Ceftazidime (Ceftazidime at 0.5 μg/mL (Table 66), Pseudomonas aeruginosa ATCC 27853) | CBD MIC with Ceftazidime (Ceftazidime at 1 μg/mL (Table 66), Pseudomonas aeruginosa ATCC 27853) | CBD MIC with Ceftazidime (Ceftazidime at […] (Table 66), Pseudomonas aeruginosa ATCC 27853)
2 µg/mL: CBD MIC with MCC_8980 (Pseudomonas aeruginosa ATCC 27853, MCC_8980 at 16 μg/mL, listed as CBD)
0.5312 and 0.5625: FICI (Pseudomonas aeruginosa ATCC 27853, cannabidiol with FADDI-287 at 0.5 μg/mL)
0.16-1.06 and 0.19-1.06: FICI range (Pseudomonas aeruginosa ATCC 27853, CBD with MCC_8980, MIC table (Table 99), listed as CBD)
0.16-0.25 and 0.19-0.26: FICI range (Pseudomonas aeruginosa ATCC 27853, CBD with MCC_8980, Synergy table (Table 101), listed as CBD)
4: FICI (Pseudomonas aeruginosa ATCC 27853, cannabidiol with FADDI-287 at 4 μg/mL)
No Synergy: FICI range (Pseudomonas aeruginosa ATCC 27853, CBD with FADDI-287, Synergy table (Table 97)) | FICI range (Pseudomonas aeruginosa ATCC 27853, CBD with Spero Potentiator SPR741, Synergy table (Table 93)) | FICI range (Pseudomonas aeruginosa ATCC 27853, CBD with Spero SPR206, Synergy table)
0.53-4 and 0.56-4: FICI range (Pseudomonas aeruginosa ATCC 27853, CBD with FADDI-287, MIC table (Table 95), listed as CBD)
0.1562 and 0.1875: FICI (Pseudomonas aeruginosa ATCC 27853, cannabidiol with MCC_8980 at 8 μg/mL)
1.0625: FICI (Pseudomonas aeruginosa ATCC 27853, cannabidiol with MCC_8980 at 4 μg/mL) | FICI (Pseudomonas aeruginosa ATCC 27853, cannabidiol with SPR741 at 4 μg/mL)
1.008: FICI (Pseudomonas aeruginosa ATCC 27853, cannabidiol with MCC_8980 at 0.5 μg/mL) | FICI (Pseudomonas aeruginosa ATCC 27853, cannabidiol with SPR741 at 0.5 μg/mL)
1.01-1.25: FICI range (Pseudomonas aeruginosa ATCC 27853, CBD with Spero Potentiator SPR741, MIC table (Table 91))
1 µg/mL: MIC (ATCC27853, Pseudomonas aeruginosa ATCC 27853, MCC_8980 at 16 μg/mL, read-out: CBD MIC with MCC_8980)
1.25: FICI (Pseudomonas aeruginosa ATCC 27853, cannabidiol with FADDI-287 at 0.25 μg/mL) | FICI (Pseudomonas aeruginosa ATCC 27853, cannabidiol with SPR741 at 16 μg/mL)
8 µg/mL: MIC (ATCC27853, Pseudomonas aeruginosa ATCC 27853, FADDI-287 at 0.5 μg/mL, read-out: CBD MIC with FADDI-287) | MIC (ATCC27853, Pseudomonas aeruginosa ATCC 27853, MCC_8980 at 8 μg/mL, read-out: CBD MIC with MCC_8980)
YES: Synergy (Example 1, GN_042, cannabidiol + MCC_006636 (Polymyxin B), synergy when FICI≤0.5)
2: FICI (Pseudomonas aeruginosa ATCC 27853, cannabidiol with FADDI-287 at 2 μg/mL)
0.265: Average FICI score (Example 1, GN_042, cannabidiol + MCC_006636 (Polymyxin B))
1: FICI (Pseudomonas aeruginosa ATCC 27853, cannabidiol with FADDI-287 at 1 μg/mL)
16 µg/mL: CBD MIC with FADDI-287 (Pseudomonas aeruginosa ATCC 27853, FADDI-287 at 0.5 μg/mL, listed as CBD) | CBD MIC with MCC_8980 (Pseudomonas aeruginosa ATCC 27853, MCC_8980 at 8 μg/mL, listed as CBD)
effective: activity of cannabidiol in combination with Polymyxin B (Example 1) | activity of cannabidiol combined with Polymyxin B (Example 6) | activity of cannabidiol combined with ticarcillin (Example 13) | activity of cannabidiol combined with ceftazidime (Example 16) | activity of cannabidiol combined with aztreonam (Example 18) | activity of cannabidiol combined with octapeptin C4 (Example 21) | activity of cannabidiol in combination with MCC_8980 (Example 24)
>256 µg/mL: CBD MIC with Cefotetan (Cefotetan at 4 μg/mL, Pseudomonas aeruginosa ATCC 27853) | CBD MIC with Cefotetan (Cefotetan at 8 μg/mL, Pseudomonas aeruginosa ATCC 27853) | CBD MIC with Cefotetan (Cefotetan at 16 μg/mL, Pseudomonas aeruginosa ATCC 27853) | CBD MIC with Cefotetan (Cefotetan at 32 μg/mL, Pseudomonas aeruginosa ATCC 27853) | CBD MIC with Cefotetan (Cefotetan at 64 μg/mL, Pseudomonas aeruginosa ATCC 27853) | CBD MIC with Cefotetan (Cefotetan at 128 μg/mL, Pseudomonas aeruginosa ATCC 27853) | CBD MIC with Ceftazidime (Ceftazidime at 0.015 μg/mL as headed in Table 64, Pseudomonas aeruginosa ATCC 27853) | CBD MIC with Ceftazidime (Ceftazidime at 0.031 μg/mL as headed in Table 64, Pseudomonas aeruginosa ATCC 27853) | CBD MIC with Ceftazidime (Ceftazidime at 0.062 μg/mL as headed in Table 64, Pseudomonas aeruginosa ATCC 27853) | CBD MIC with Polymyxin B at concentration 0.015625 μg/mL (Example 6, GN_042) | CBD MIC with Polymyxin B at concentration 0.03125 μg/mL (Example 6, GN_042) | CBD MIC with Polymyxin B at concentration 0.0625 μg/mL (Example 6, GN_042) | CBD MIC with Polymyxin B at concentration 0.25 μg/mL (Example 6, GN_042) | CBD MIC with Polymyxin B at concentration […] (Example 6, GN_042)
